This is an account of results in patent publication US7544204B2, “Control of halitosis-generating and other microorganisms in the non-dental upper respiratory tract” (Valam Corporation, priority 2003, dated 2009).

In one test the test system is P. gingivalis ATCC 33277. Briefly: Lethal photosensitization of P. Gingivalis, colony count. Type of test: cell-based, Porphyromonas Gingivalis. The method, then:
• Suitable stain dosages for providing lethal sensitization of oral pathogens are determined in vitro by the following procedure. An objective is to determine the minimum duration of light exposure and minimum agent dilution required to achieve at least a 50% reduction in bacteria counts. Experimental tests are performed on two common pathogens using a continuously working, high intensity, red filtered halogen lamp. Red light from the filtered halogen lamp is transmitted through a flexible light guide to radiate downwardly onto petri dishes containing samples of live bacteria of species Porphyromonas Gingivalis and Prevotella Intermedia using the protocols described below. • Bacteria. Prevoltella Intermedia is isolated from patient sample material, identified in the laboratory using standard diagnostic test systems (Remel Inc., Lenexa, Kans., USA) and is maintained by twice-weekly subculture in thioglycollate medium (Becton Dickinson and Co, Sparks, Md., USA). P. gingivalis ATCC 33277 obtained from Remel Inc., is maintained by a twice-weekly subculture on CDC anaerobe blood agar (Becton Dickinson and Co, USA) and in thioglycollate medium (Becton Dickinson and Co, USA). • Light Source. […] The light output power density measured at 3 cm distance from the end of the light guide with filter is about 50 milliwatts/cm2. • Photosensitizer. […]

The subject of test [1] is Porphyromonas Gingivalis and Prevotella Intermedia. The conditions noted are these: for bactericidal effect without light exposure: methylene blue 0.075% and 0.1%, no red halogen light.
The next test has as its system Candida albicans. The following applies: methylene blue 450 and 500 microgram/mL; diode laser 664 nm, 275 J/cm fiber length, 400 mW, 687.5 seconds; immunosuppressed murine model; cited from earlier work.
A further test concerns Escherichia Coli. The following applies: micromolar concentrations; gram negative (E. Coli); illuminated in light box; cited from earlier work.
In a further test the test system is Staphylococcus Aureus. The conditions noted are these: micromolar concentrations; gram positive (Staph aureus); illuminated in light box; cited from earlier work.

Like-named read-outs stand apart in the source and are kept apart here.

Regarding `CN(C)c1ccc2nc3ccc(=[N+](C)C)cc-3sc2c1` [methylene blue], the “bacterial killing without light exposure” value with P. gingivalis ATCC 33277 (methylene blue 0.01%, without light exposure, P.gingivalis culture) was “statistically significant bacterial killing”. Also, the “bactericidal effect on P.gingivalis” value with P. gingivalis ATCC 33277 (methylene blue 0.1%) is given as “bactericidal effect”. Besides, the “killing with duration of red-filtered light exposure” value in test [1] (1, 5 and 10 min with methylene blue 0.05%, 5 and 10 min with methylene blue 0.025%) was “statistically significant increased killing with duration”. Besides, in test [1] (light 5 min with methylene blue 0.025%, light 1 min with methylene blue 0.05% and higher), the “reduction in bacteria counts” value was “Significant reduction in bacteria counts”. Moreover, the “killing of bacteria without halogen light” value in test [1] (methylene blue 0.001% or 0.025%, without halogen light) is “nor concentrations of methylene blue of 0.001% or 0.025%, without halogen light, appeared to be effective in killing bacteria”. Also, the “bactericidal effect in combination with red-filtered high-intensity light” value in test [1] (methylene blue 0.01% or higher, exposure less than 10 minutes, accumulated energy 30 J/cm^2, both species) is “bactericidal effect”. Also, in test [1] (methylene blue 0.05% and higher, red light exposure 10 or 20 minutes), the “survival rate (bacterial colony count)” value is recorded as at most 50%. The “reduction of bacteria, methylene blue alone” value in test [1] (methylene blue 0.05%, without exposure to light) is reported as “insignificant”. Further, the “bactericidal effect without light exposure” value in test [1] is “significantly bactericidal”; in test [1] (listed as Methylene blue), “significant bactericidal effect”. Also, the “eradication of Candida albicans” value with Candida albicans is given as “totally eradicate”. Also, the “bacterial cell death by phototoxicity” value in the test on Escherichia Coli and in the test with Staphylococcus Aureus was “bacterial cell death” each time.

As to `Cc1cc2nc3ccc(N(C)C)cc3[s+]c2cc1N.[Cl-]` [toluidine blue O], the “bacterial cell death by phototoxicity” value with Escherichia Coli and with Staphylococcus Aureus was “bacterial cell death” throughout.
